Results on twelve molecules are retold here after ChEMBL document CHEMBL1132543, “N-deacetyl-N-aminoacylthiocolchicine derivatives: synthesis and biological evaluation on MDR-positive and MDR-negative human cancer cell lines” (J Med Chem, 1999).

The test system of assay [1] is MCF7. As to the kind of experiment: Anti tumor activity on human breast cancer cell line MDR-positive MCF-7 ADRr after 72 hours of treatment. The class given is functional, cell-based. Conditions: MCF7, 72 h.
Assay [2] deals with MDA-MB-231. As to the kind of experiment: cells. The settings on record: Homo sapiens, MDA-MB-231, 72 h. The class given is functional, cell-based.
Description: Anti tumor activity on human breast cancer cell line MDR-negative MDA-MB 231 after 72 hours of treatment

SMILES strings stand for the structures.

For the molecule `COc1cc2c(c(OC)c1OC)-c1ccc(SC)c(=O)cc1[C@@H](NC(=O)[C@@H](C)N)CC2.COc1cc2c(c(OC)c1OC)-c1ccc(SC)c(=O)cc1[C@@H](NC(=O)[C@H](C)N)CC2`, the IC50 (as a rule, the midpoint of a concentration-inhibition curve) in assay [1] stood at 800 nM; in assay [2], 19 nM. Take `COc1cc2c(c(OC)c1OC)-c1ccc(SC)c(=O)cc1[C@@H](NC(=O)[C@@H](NC(=O)C(F)(F)F)c1ccccc1)CC2.COc1cc2c(c(OC)c1OC)-c1ccc(SC)c(=O)cc1[C@@H](NC(=O)[C@H](NC(=O)C(F)(F)F)c1ccccc1)CC2`: the IC50 in assay [1] was found to be 1500 nM; in assay [2] it was 24 nM. With `COc1cc2c(c(OC)c1OC)-c1ccc(SC)c(=O)cc1[C@@H](NC(=O)CNC(=O)C(F)(F)F)CC2`, the IC50 in assay [1] came out at 12000 nM; in assay [2] it was 6 nM. The corresponding values for `COc1cc2c(c(OC)c1OC)-c1ccc(SC)c(=O)cc1[C@@H](NC(=O)C(F)(F)F)CC2` are 35 nM and 1.3 nM. The corresponding values for `COc1cc2c(c(OC)c1OC)-c1ccc(SC)c(=O)cc1[C@@H](NC(=O)[C@@H](C)NC(=O)C(F)(F)F)CC2.COc1cc2c(c(OC)c1OC)-c1ccc(SC)c(=O)cc1[C@@H](NC(=O)[C@H](C)NC(=O)C(F)(F)F)CC2` are 2100 nM and 12 nM. With `COc1cc2c(c(OC)c1OC)-c1ccc(SC)c(=O)cc1[C@@H](NC(=O)[C@@H](N)CCSC)CC2.COc1cc2c(c(OC)c1OC)-c1ccc(SC)c(=O)cc1[C@@H](NC(=O)[C@H](N)CCSC)CC2`, the IC50 in assay [1] is 20000 nM; in assay [2] it was 35 nM. With `COc1cc2c(c(OC)c1OC)-c1ccc(OC)c(=O)cc1[C@@H](NC(C)=O)CC2` [COLCHICINE], the midpoint of inhibition in assay [2], the IC50, lay at 1.8 nM. Regarding `COc1cc2c(c(OC)c1OC)-c1ccc(SC)c(=O)cc1[C@@H](NC(=O)[C@@H](N)c1ccccc1)CC2.COc1cc2c(c(OC)c1OC)-c1ccc(SC)c(=O)cc1[C@@H](NC(=O)[C@H](N)c1ccccc1)CC2`, the values for the IC50 in assay [1] and in assay [2] were 1700 nM and 3 nM, respectively. For `COc1cc2c(c(OC)c1OC)-c1ccc(SC)c(=O)cc1[C@@H](NC(=O)[C@H](C)N)CC2`, the IC50 in assay [1] turned out to be 10000 nM; in assay [2], 90 nM. The corresponding values for `COc1cc2c(c(OC)c1OC)-c1ccc(SC)c(=O)cc1[C@@H](NC(=O)CN)CC2` are 10000 nM and 7.6 nM.

Regarding `COc1cc2c(c(OC)c1OC)-c1ccc(SC)c(=O)cc1[C@@H](NC(=O)[C@@H](CCSC)NC(=O)C(F)(F)F)CC2.COc1cc2c(c(OC)c1OC)-c1ccc(SC)c(=O)cc1[C@@H](NC(=O)[C@H](CCSC)NC(=O)C(F)(F)F)CC2`, the IC50 in assay [1] was determined as 10000 nM; in assay [2], 37 nM.

As for `COc1cc2c(c(OC)c1OC)-c1ccc(SC)c(=O)cc1[C@@H](NC(=O)[C@@H](C)N)CC2`, the IC50 in assay [1] turned out to be 12000 nM; in assay [2] it was 150 nM.
